Data set [1] has as its system co‐culture of RF33.70 cells and the activated BMDCs. As to the kind of experiment: IL-2 secretion from co-culture of pretreated BMDCs and RF33.70 cells (ELISA). In kind it is cell-based, mouse. To be noted: BMDCs pretreated 16 h at 1 µM, co-culture with RF33.70 16 h, n = 3. Here is the method: The differentiation of BMDC from bone marrow cells was performed as previously described.^[ [48] ^] 2 × 10^4 cells/well BMDCs were suspended in 200 µL medium without adding IL‐2 and IL‐4. BMDCs were treated with LPn[OVA8/CpG/LLP2A] containing 1 or 2 µM of OVA8 for 16 h. Each group contains approximately equivalent concentrations of CpG and OVA8 based on the data in Table S1 (Supporting Information). After that, the cells were centrifuged at 320 g for 5 min to remove the uninternalized drugs. Then the BMDC cells were resuspended in RPMI medium and were co‐incubated with 10 × 10^4 cells/well of RF33.70 cells for another 16 h. After that, the medium supernatant was collected. The IL‐2 concentration was measured by IL‐2 Mouse ELISA Kit (Thermo Fisher).
For the blocking experiment, BMDC cells were pre‐incubated with an excess of LLP2A‐P4 (100 µM) for 1 h. Then the cells were washed three times with PBS, before the treatment of 1 µM LP11[OVA8/CpG/LLP2A] for 16 h. After that, the cells were washed three times with PBS to get rid of the uninternalized drugs, followed by co‐culturing with RF33.70 cells. The IL‐2 level was quantified by ELISA as mentioned above.
(In general: In an ELISA, binding on a coated surface is turned into a signal by an enzyme label.)

Data set [2] in a line: Zeta potential in H2O (Malvern DLS zetasizer). In kind it is physicochemical. To be noted: OVA8 or CpG 5 µM, mean ± SD, n = 3. From the text:
(§1) The size and zeta potential of LPn[OVA8/CpG/LLP2A] in H2O were detected by Malvern DLS zetasizer with the equivalent concentration of OVA8 or CpG at 5 µΜ. The morphology of LPn[OVA8/CpG/LLP2A] was visualized by transmission electron microscope (TEM, 80 kV FEI Talos 120C).

The nature of data set [3]: Hydrodynamic size by DLS (Malvern zetasizer) in water. The data set is classed as physicochemical. The conditions noted are these: in H2O, OVA8 or CpG 5 µM, mean ± SD, n = 3. How it is done: The size and the dispersity of each of the three nanoconstructs in water were determined by Malvern zetasizer. […] (195.1 nm ± 61.1). […] To better understand how PVN nanoparticles are formed, we used LP11[OVA8/CpG/LLP2A] as an example and analyzed the hydrodynamic size, morphology, and spatial distribution of its components in various LP11‐based incomplete PVNs. It is well‐known that Class A CpG ODNs can self‐assemble into nanosized multimers because of their palindromic and poly‐guanine (G) tails.^[ [19], [21], [22] ^] […] To determine whether G‐quadruplex structures formed in the CpG ODN nanoclusters, we used nuclear magnetic resonance (NMR) to detect the CpG structure. […] Furthermore, hybridization with CpG, P3‐OVA8, and LLP2A‐P4 payloads increased the size of the final nanoparticle to 132.6 ± 71.7 nm.
as §1

As to CCCCGTATGCA [LP11], in data set [1], the “IL‐2 production” value is reported as “barely induced”. The zeta potential in data set [2] was around 0 mV.

“CpG: Class A CpG oligonucleotide, toll‐like receptor 9 agonist; 5′ ggGGTCAACGTTGAgggggg 3′, lowercase phosphorothioate (DNA GGGGTCAACGTTGAGGGGGG; DNA, linkages s2 o12 s5 (s phosphorothioate, o phosphodiester), methylation of C not given here; further chemistry not fully specified)”: the “IL‐2 production” value in data set [1] is reported as “barely induced”. In addition, the average hydrodynamic size in data set [3] was determined as 62.3 ± 14.2 nm. Moreover, the zeta potential in data set [2] was −24.3 ± 13.3 mV.

TAC‐K‐SIINFEKL [P3‐OVA8] displayed a zeta potential in data set [2] of around 0 mV.

These data come from paper PMC12723328, “Designing Programmable Peptide Nucleic Acid‐based Nanovaccines for Anticancer Immune Activation” (Small (Weinheim an Der Bergstrasse, Germany), 2025).
